The values below come from patent publication US20240067693A1, “POLYPEPTIDES AND USES THEREOF” (MEDIMMUNE LIMITED, priority 2020, published 2024).

The structures appear in SMILES notation. Numbered stars: 1 amine (or outer) side, 2 acyl side, 3 side chain; on linkers, the order of the positions; unused ones are H or OH. Bridge positions count the residues as written; N and C are the ends. Square brackets hold non-standard residues; d marks the D form. Side chains are listed from the residue outwards. Peptide text beside a SMILES is read from it. * marks the point of attachment. C18 diacid = O=C(O)CCCCCCCCCCCCCCCCC(=O)*; γGlu = O=C(O)[C@H](CCC(=O)[*:2])N[*:1]; αMeF = C[C@](N)(Cc1ccccc1)C(=O)O

Data set [1] in a line: Thioflavin T fibrillation assay. It counts as physicochemical. The settings on record: ThT fibrillation assay; peptide 1 mg/mL in 25 mM sodium acetate buffer pH 4.0; 6 days at 37 °C with shaking; >144 h = no increase. The gist of the method:
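Peptides at 1 mg/mL in 25 mM sodium acetate pH 4.0 with ThT (from 0.25 mM stock), incubated 6 days at 37 °C with intermittent orbital shaking at 500–750 rpm. Fluorescence (ex 444/em 480 nm) read every 30 min; value is average time to a rise in baseline-corrected signal.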

Data set [2] addresses T1, human amylin receptor (calcitonin receptor co-expressed with receptor activity modifying protein, RAMP3) (hAMYR3) (Homo sapiens, UniProt O60896+P30988).
T1 construct: expressed in transfected cells
T1 sequence (P30988 25-474): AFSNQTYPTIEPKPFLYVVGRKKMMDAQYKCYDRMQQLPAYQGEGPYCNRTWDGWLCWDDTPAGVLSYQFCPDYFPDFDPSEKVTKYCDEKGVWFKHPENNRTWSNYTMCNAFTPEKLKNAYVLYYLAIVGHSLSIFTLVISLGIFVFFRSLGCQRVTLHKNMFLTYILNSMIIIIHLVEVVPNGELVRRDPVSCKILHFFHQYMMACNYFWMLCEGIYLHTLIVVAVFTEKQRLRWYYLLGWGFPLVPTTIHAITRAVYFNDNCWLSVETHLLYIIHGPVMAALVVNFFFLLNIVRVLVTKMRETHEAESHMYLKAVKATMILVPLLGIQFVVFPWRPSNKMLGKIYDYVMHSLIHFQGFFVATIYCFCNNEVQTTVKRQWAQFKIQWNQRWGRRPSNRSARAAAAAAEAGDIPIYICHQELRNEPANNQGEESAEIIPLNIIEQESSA
T1 sequence (O60896 24-148 partner): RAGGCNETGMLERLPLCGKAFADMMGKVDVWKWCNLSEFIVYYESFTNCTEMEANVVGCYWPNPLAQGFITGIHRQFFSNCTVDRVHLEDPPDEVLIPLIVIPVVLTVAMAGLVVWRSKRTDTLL
In words: cAMP production in 1321N1 cells with stable recombinant expression of human amylin receptor (hAMYR3). It counts as cell-based. The settings on record: for Ratio (selectivity hAMYR vs hCTR, ratio of EC50 values at the two receptors): EC50 hCTR / EC50 hAMYR3; for EC50: cAMP, 1321N1 cells, assay buffer with 0.1% BSA, read-out: EC50 (pM) hAMYR3. The gist of the method: (§1)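 Receptor-expressing cells (human receptors in 1321N1, rat receptors in HEK) incubated 30 min at room temperature with peptide in HBSS/HEPES pH 7.4, 0.1% BSA, 0.5 mM IBMX. cAMP read by HTRF; EC50 from 4-parameter fit as % of maximal amylin or calcitonin response.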

In the next data set the test system is lean rats. In words: Rat acute food intake study. It counts as in vivo. The note with it: lean male Sprague Dawley rats, 20 nmol/kg subcutaneously. Summed up:
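Male Sprague Dawley rats (n=7/group), fasted 6 h, received 20 nmol/kg test compound or 60 nmol/kg pramlintide subcutaneously 30 min before food return at dark onset. Food intake recorded automatically in home cages over 3 days, binned hourly and analysed as cumulative dark-period intake; body weight taken daily.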

Data set [3] concerns the target T2, human calcitonin receptor (hCTR) (Homo sapiens, UniProt P30988).
T2 construct: expressed in transfected cells
T2 sequence (P30988 25-474): T1 sequence (P30988 25-474)
In words: cAMP production in 1321N1 cells with stable recombinant expression of human calcitonin receptor (hCTR). It counts as cell-based. The settings on record: cAMP, 1321N1 cells, assay buffer with 0.1% BSA; read-out: EC50 (pM) hCTR. Summed up:
as §1

Regarding `CC[C@H](C)[C@H](NC(=O)[C@@H]1CCCN1C(=O)CNC(=O)[C@](C)(Cc1ccccc1)NC(=O)[C@H](CC(N)=O)NC(=O)[C@H](CC(N)=O)NC(=O)[C@H](CO)NC(=O)[C@H](CO)NC(=O)[C@H](Cc1c[nH]cn1)NC(=O)[C@@H](NC(=O)[C@H](CC(C)C)NC(=O)[C@H](Cc1ccccc1)NC(=O)[C@H](CC(N)=O)NC(=O)[C@H](C)NC(=O)[C@H](CC(C)C)NC(=O)[C@H](CCCNC(=N)N)NC(=O)[C@H](CCC(N)=O)NC(=O)[C@@H](NC(=O)[C@H](C)NC(=O)[C@@H]1CSSC[C@H](NC(=O)[C@@H](N)CCCCNC(=O)CC[C@H](NC(=O)CC[C@H](NC(=O)CCCCCCCCCCCCCCCCC(=O)O)C(=O)O)C(=O)O)C(=O)N[C@@H](CC(N)=O)C(=O)N[C@@H]([C@@H](C)O)C(=O)N[C@@H](C)C(=O)N[C@@H]([C@@H](C)O)C(=O)N1)[C@@H](C)O)C(C)C)C(=O)N[C@@H](CC(C)C)C(=O)N1CCC[C@H]1C(=O)N1CCC[C@H]1C(=O)N[C@H](C(=O)N[C@@H](CCCNC(=N)N)C(=O)N[C@H](C(=O)NCC(=O)N[C@@H](CO)C(=O)N[C@@H](CC(N)=O)C(=O)N[C@H](C(=O)N[C@@H](Cc1ccc(O)cc1)C(N)=O)[C@@H](C)O)C(C)C)[C@@H](C)O` [Peptide 24, K(γE-γE-C18diacid)[CNTATC]ATQRLANFLVHSSNN(αMePhe)GPILPPTRVGSNTY-amide] (H-K([γGlu-γGlu-C18 diacid])CNTATCATQRLANFLVHSSNN[αMeF]GPILPPTRVGSNTY-NH2; disulfide 2-7; N-terminus assumed), in data set [1], the “Time taken to detect increase in fluorescence intensity” value (“Time taken to detect increase” below) is given as above 144 h. In addition, in data set [2], the “Ratio (selectivity hAMYR vs hCTR, ratio of EC50 values at the two receptors)” value turned out to be 15 and the EC50 is 127 pM. Also, in the data set on lean rats, the “Cummulative food intake (% vehicle treated intake) At 12 h” value amounted to 18.7 % vehicle treated intake, the “Cummulative food intake (% vehicle treated intake) At 24 h” value is on record as 19.4 % vehicle treated intake and the “Cummulative food intake (% vehicle treated intake) At 48 h” value came out at 40.6 % vehicle treated intake. Moreover, the EC50 in data set [3] came out at 1860 pM.

In the case of `CC[C@H](C)[C@H](NC(=O)[C@@H]1CCCN1C(=O)CNC(=O)[C@](C)(Cc1ccccc1)NC(=O)[C@H](CC(N)=O)NC(=O)[C@H](CC(N)=O)NC(=O)[C@H](CO)NC(=O)[C@H](CO)NC(=O)[C@H](Cc1c[nH]cn1)NC(=O)[C@H](CCCNC(=N)N)NC(=O)[C@H](CC(C)C)NC(=O)[C@H](Cc1ccccc1)NC(=O)[C@H](CCC(=O)O)NC(=O)[C@H](C)NC(=O)[C@H](CC(C)C)NC(=O)[C@H](CCCNC(=N)N)NC(=O)[C@H](CCC(N)=O)NC(=O)[C@@H](NC(=O)[C@H](C)NC(=O)[C@@H]1CSSC[C@H](NC(=O)[C@H](CCCCN)NC(=O)[C@@H](N)CCCCNC(=O)CC[C@H](NC(=O)CCCCCCCCCCCCCCCCC(=O)O)C(=O)O)C(=O)N[C@@H](CC(N)=O)C(=O)N[C@@H]([C@@H](C)O)C(=O)N[C@@H](C)C(=O)N[C@@H]([C@@H](C)O)C(=O)N1)[C@@H](C)O)C(=O)N[C@@H](CC(C)C)C(=O)N1CCC[C@H]1C(=O)N1CCC[C@H]1C(=O)N[C@H](C(=O)N[C@@H](CC(N)=O)C(=O)N[C@H](C(=O)NCC(=O)N[C@@H](CO)C(=O)N[C@@H](CC(N)=O)C(=O)N[C@H](C(=O)N[C@@H](Cc1ccc(O)cc1)C(N)=O)[C@@H](C)O)C(C)C)[C@@H](C)O` [Peptide 12, K(γE-C18diacid)K[CNTATC]ATQRLAEFLRHSSNN(αMePhe)GPILPPTNVGSNTY-amide] (H-K([γGlu-C18 diacid])KCNTATCATQRLAEFLRHSSNN[αMeF]GPILPPTNVGSNTY-NH2; disulfide 3-8; N-terminus assumed), in data set [1], the “Time taken to detect increase” value is given as above 144 h. In addition, in data set [2], the “Ratio (selectivity hAMYR vs hCTR, ratio of EC50 values at the two receptors)” value is 8 and the EC50 came to 158 pM. In the data set with lean rats, the “Cummulative food intake (% vehicle treated intake) At 12 h” value amounted to 9.4 % vehicle treated intake, the “Cummulative food intake (% vehicle treated intake) At 24 h” value came out at 7.5 % vehicle treated intake and the “Cummulative food intake (% vehicle treated intake) At 48 h” value is 23.6 % vehicle treated intake. Also, the 50% effective concentration (EC50) in data set [3] is 1220 pM.

For `CC[C@H](C)[C@H](NC(=O)[C@@H]1CCCN1C(=O)CNC(=O)[C@](C)(Cc1ccccc1)NC(=O)[C@H](CC(N)=O)NC(=O)[C@H](CC(N)=O)NC(=O)[C@H](CO)NC(=O)[C@H](CO)NC(=O)[C@H](Cc1c[nH]cn1)NC(=O)[C@H](CCCNC(=N)N)NC(=O)[C@H](CC(C)C)NC(=O)[C@H](Cc1ccccc1)NC(=O)[C@H](CC(N)=O)NC(=O)[C@H](C)NC(=O)[C@H](CC(C)C)NC(=O)[C@H](CCCNC(=N)N)NC(=O)[C@H](CCC(N)=O)NC(=O)[C@@H](NC(=O)[C@H](C)NC(=O)[C@@H]1CSSC[C@H](NC(=O)[C@@H](N)CCCCNC(=O)CC[C@H](NC(=O)CC[C@H](NC(=O)CCCCCCCCCCCCCCCCC(=O)O)C(=O)O)C(=O)O)C(=O)N[C@@H](CC(N)=O)C(=O)N[C@@H]([C@@H](C)O)C(=O)N[C@@H](C)C(=O)N[C@@H]([C@@H](C)O)C(=O)N1)[C@@H](C)O)C(=O)N[C@@H](CC(C)C)C(=O)N1CCC[C@H]1C(=O)N1CCC[C@H]1C(=O)N[C@H](C(=O)N[C@@H](CC(N)=O)C(=O)N[C@H](C(=O)NCC(=O)N[C@@H](CO)C(=O)N[C@@H](CC(N)=O)C(=O)N[C@H](C(=O)N[C@@H](Cc1ccc(O)cc1)C(N)=O)[C@@H](C)O)C(C)C)[C@@H](C)O` [Peptide 20, K(γE-γE-C18diacid)[CNTATC]ATQRLANFLRHSSNN(αMePhe)GPILPPTNVGSNTY-amide] (H-K([γGlu-γGlu-C18 diacid])CNTATCATQRLANFLRHSSNN[αMeF]GPILPPTNVGSNTY-NH2; disulfide 2-7; N-terminus assumed), the “Time taken to detect increase” value in data set [1] is recorded as above 144 h. Besides, in data set [2], the “Ratio (selectivity hAMYR vs hCTR, ratio of EC50 values at the two receptors)” value is 26 and the EC50 turned out to be 174 pM. Moreover, in the data set with lean rats, the “Cummulative food intake (% vehicle treated intake) At 12 h” value was 27 % vehicle treated intake, the “Cummulative food intake (% vehicle treated intake) At 24 h” value was determined as 26.2 % vehicle treated intake and the “Cummulative food intake (% vehicle treated intake) At 48 h” value is listed as 49.7 % vehicle treated intake. The EC50 in data set [3] was determined as 4590 pM.

Take `CC[C@H](C)[C@H](NC(=O)[C@@H]1CCCN1C(=O)CNC(=O)[C@](C)(Cc1ccccc1)NC(=O)[C@H](CC(N)=O)NC(=O)[C@H](CC(N)=O)NC(=O)[C@H](CO)NC(=O)[C@H](CO)NC(=O)[C@H](Cc1c[nH]cn1)NC(=O)[C@H](CCCNC(=N)N)NC(=O)[C@H](CC(C)C)NC(=O)[C@H](Cc1ccccc1)NC(=O)[C@H](CC(N)=O)NC(=O)[C@H](C)NC(=O)[C@H](CC(C)C)NC(=O)[C@H](CCCNC(=N)N)NC(=O)[C@H](CCC(N)=O)NC(=O)[C@@H](NC(=O)[C@H](C)NC(=O)[C@@H]1CSSC[C@H](NC(=O)[C@@H](N)CCCCNC(=O)CC[C@H](NC(=O)CC[C@H](NC(=O)CCCCCCCCCCCCCCCCC(=O)O)C(=O)O)C(=O)O)C(=O)N[C@@H](CC(N)=O)C(=O)N[C@@H]([C@@H](C)O)C(=O)N[C@@H](C)C(=O)N[C@@H]([C@@H](C)O)C(=O)N1)[C@@H](C)O)C(=O)N[C@@H](CC(C)C)C(=O)N1CCC[C@H]1C(=O)N1CCC[C@H]1C(=O)N[C@H](C(=O)N[C@@H](CCC(=O)O)C(=O)N[C@H](C(=O)NCC(=O)N[C@@H](CO)C(=O)N[C@@H](CC(N)=O)C(=O)N[C@H](C(=O)N[C@@H](Cc1ccc(O)cc1)C(N)=O)[C@@H](C)O)C(C)C)[C@@H](C)O` [Peptide 18, K(γE-γE-C18diacid)[CNTATC]ATQRLANFLRHSSNN(αMePhe)GPILPPTEVGSNTY-amide] (H-K([γGlu-γGlu-C18 diacid])CNTATCATQRLANFLRHSSNN[αMeF]GPILPPTEVGSNTY-NH2; disulfide 2-7; N-terminus assumed): in data set [1], the “Time taken to detect increase” value is listed as above 144 h. For the same molecule, in data set [2], the “Ratio (selectivity hAMYR vs hCTR, ratio of EC50 values at the two receptors)” value is 15 and the EC50 worked out at 319 pM. Further, in the data set with lean rats, the “Cummulative food intake (% vehicle treated intake) At 12 h” value was 45.8 % vehicle treated intake, the “Cummulative food intake (% vehicle treated intake) At 24 h” value is reported as 46.9 % vehicle treated intake and the “Cummulative food intake (% vehicle treated intake) At 48 h” value turned out to be 68.8 % vehicle treated intake. Also, the EC50 in data set [3] is 4690 pM.
